Our source for the GI50 and TGI values is PubChem BioAssay (NCI).

Each structure is given as a SMILES string. Several values for one entry are separate records, joined by “and”; a condition that tells them apart may be missing. Identical values can stand only once.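 Results reflect a 48-hour exposure of cells in 96-well plates to compound at five concentrations. GI50 marks 50% less growth. TGI marks complete inhibition of growth.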 Where a SMILES comes first, the peptide text is derived from it. [ ]: non-standard residue; d: D form. The star is where a group is joined. ξ: configuration not given here. 4Abz = Nc1ccc(C(=O)O)cc1; ξL = CC(C)CC(N)C(=O)O; NHOH = ON*

For the assay, the system named is BT-549 breast. The assay is described as follows: NCI-60 cell line screen, 48 h.
As to `CC([C@H]1CCC2C3CCC4C(=O)C(NC=O)=CC[C@]4(C)C3CC[C@@]21C)N(C)C` (stereo partly specified), the GI50 was 3.94 µM and the TGI stood at 21.3 µM.
For `CCSc1sc(-c2ccc(C)cc2)nc1[P+](c1ccccc1)(c1ccccc1)c1ccccc1`, the GI50 was 0.295 µM and the TGI is 1.32 µM.
For `COC(=O)C1=C(O)C(C(=O)OC)[C@@]2(O)[C@@H](C(=O)OC)C(c3ccccc3C(F)(F)F)C[C@@H]1[C@@H]2C(=O)OC` (stereo partly specified), the GI50 was 3.08 µM and the TGI was 11.9 µM.
For `COc1ccc(OC)c(-c2cc(-c3ccc(Cl)cc3)nn2-c2ccc(S(N)(=O)=O)cc2)c1` the same measures were 12.4 µM and 29.4 µM.
For `CN1CCN(c2nc(C3=C(c4c[nH]c5ccccc45)C(=O)NC3=O)c3ccccc3n2)CC1`, the GI50 was 8.91 µM and 14.3 µM; the TGI was 20.8 µM and 29.3 µM.
Turning to `COc1cccc(-n2cnc3c(N/N=C/c4ccncc4)ncnc32)c1`, the GI50 is over 23.8 µM and the TGI was over 25 µM.
In the case of `Cc1c(Br)cccc1NC(=O)c1sc2nc3c(cc2c1N)CN(Cc1ccccc1)CC3`, the GI50 was 0.708 µM and the TGI is 25.3 µM.
In the case of `CC(C)=CCNc1ncnc2c1ncn2C1OC(COP(=O)(O)O)C(O)C1O` (stereo unspecified), the GI50 was 2.43 µM and the TGI was 6.81 µM.
Take `Oc1ccc(Br)cc1CN1CCN(Cc2ccc(Cl)cc2)CC1`: the GI50 is 38.2 µM and the TGI was over 100 µM.
For the compound `COc1cc2c(cc1OC)[C@@H]1[C@H](C2=O)c2ccc([N+](=O)[O-])cc2C(=O)N1CCCBr`, the GI50 is 1.96 µM and the TGI was determined as 23.9 µM.
Regarding `CC(=O)c1c[nH]c2ccc(-c3ccnc(Nc4ccc(NC(=O)c5cccc(F)c5)c(CN5CCOCC5)c4)n3)cc12`, the GI50 was 0.208 µM and the TGI worked out at 3.97 µM.
In the case of `N#CC1=C(N)NC(=S)NC1c1ccc(-c2ccc(-c3nc4ccccc4s3)cc2)o1` (stereo unspecified), the GI50 is 21.7 µM and the TGI is over 50 µM.
With `CC(C)CC(NC(=O)[C@@H]1CCCN1C(=O)CNC(=O)c1ccc(N)cc1)C(=O)N[C@H](C)C(=O)NO` (stereo partly specified) (H-[4Abz]GP[ξL][dA]-{NHOH}), the GI50 is over 100 µM and the TGI is over 100 µM.
For `Cc1cc(C)c2nc(Nc3nc(C)c(C)c(=O)[nH]3)nc(C)c2c1`, the GI50 is 2.01 µM and the TGI is 8.48 µM.
For `CCCCC#Cc1c(I)n(C2OC(CO[Si](C)(C)C(C)(C)C)C3OC(C)(C)OC32)c(=O)[nH]c1=O` (stereo unspecified) the same measures were 14.8 µM and 28.7 µM.
In the case of `COc1cc(Oc2cnc3cc(N)cc(N)c3n2)cc(OC)c1OC`, the GI50 was 43.5 µM and the TGI was over 100 µM.
In the case of `CCCCCc1c(C)[nH]c(/C=C2\N=C(c3ccc[nH]3)C=C2Oc2ccc(OC)cc2)c1C`, the GI50 was 0.353 µM and 0.246 µM; the TGI was 2.6 µM and 2.36 µM.
Regarding `COc1cc(C2CC(c3ccc(C)cc3)=NN2C(C)=O)ccc1Oc1ccnc2cc(Cl)ccc12` (stereo unspecified), the GI50 was 3.48 µM and the TGI is over 100 µM.
With `COc1ccc(-n2cc(-c3ccc(Cl)cc3)[nH]c2=S)cc1Cl`, the GI50 was 20.5 µM and the TGI was determined as 55 µM.
For `COc1ccc(CNCCN2C(=O)c3ccc4c5c(ccc(c35)C2=O)C(=O)N(CCNCc2ccc(OC)cc2)C4=O)cc1`, the GI50 is 0.35 µM and the TGI was determined as 1.03 µM.
As for `O=C1c2cc(Br)ccc2-c2c1c1ccccc1c(=O)n2CCCCl`, the GI50 was 44.5 µM and the TGI was over 100 µM.
For `NS(=O)(=O)OC[C@H]1O[C@@H](n2cnc3c(N[C@H]4CCc5ccccc54)ncnc32)[C@H](O)[C@@H]1O` the same measures were 0.0298 µM and 0.081 µM.
On to `COC(=O)C1=C(O)C(C(=O)OC)[C@@]2(O)[C@@H](C(=O)OC)C(c3ccc(OC(=O)C(Cc4ccccc4)NC(C)=O)cc3)C[C@@H]1[C@@H]2C(=O)OC` (stereo partly specified), for which the GI50 was 38 µM and the TGI was over 100 µM.
`COc1ccc(/C(C#N)=C/c2nc3c(N4CCOCC4)nc(Cl)nc3n2C)cc1OC`: the GI50 is under 0.01 µM and the TGI worked out at 0.244 µM.
As to `Nc1nc(Cl)cc2c1ncn2C1OC(CO)C(O)C1O` (stereo unspecified), the GI50 was over 100 µM and the TGI is over 100 µM.
Turning to `N#CC1=C(N)Oc2c(sc3c(F)cccc23)C1c1ccc(Cl)cc1` (stereo unspecified), the GI50 was 3.6 µM and the TGI was 22.5 µM.
`COc1ccc(C2CC(c3cccc(Nc4ccnc5cc(Cl)ccc45)c3)=NN2c2ccccc2)cc1` (stereo unspecified): the GI50 was 7.42 µM and the TGI turned out to be 39.2 µM.
For `COc1cc(C2C3=C(COC3=O)N(CCO)c3cc4c(cc32)OCCO4)cc(OC)c1O` (stereo unspecified), the GI50 is 5.71 µM and the TGI was over 27.8 µM.
